Values quoted from earlier work in patent US20130281394A1, “Chemosensory Receptor Ligand-Based Therapies” (ELCELYX THERAPEUTICS, INC., priority 2010, published 2013).
Marks after values point to notes of the source that are not given here.

target: T1, sweet receptor (Homo sapiens, UniProt Q7RTX0+Q8TE23); settings: relative sweetness on a weight comparison basis to sucrose (= 1.0); ranges: varied with the concentration of sucrose
T1 sequence (Q8TE23 20-839): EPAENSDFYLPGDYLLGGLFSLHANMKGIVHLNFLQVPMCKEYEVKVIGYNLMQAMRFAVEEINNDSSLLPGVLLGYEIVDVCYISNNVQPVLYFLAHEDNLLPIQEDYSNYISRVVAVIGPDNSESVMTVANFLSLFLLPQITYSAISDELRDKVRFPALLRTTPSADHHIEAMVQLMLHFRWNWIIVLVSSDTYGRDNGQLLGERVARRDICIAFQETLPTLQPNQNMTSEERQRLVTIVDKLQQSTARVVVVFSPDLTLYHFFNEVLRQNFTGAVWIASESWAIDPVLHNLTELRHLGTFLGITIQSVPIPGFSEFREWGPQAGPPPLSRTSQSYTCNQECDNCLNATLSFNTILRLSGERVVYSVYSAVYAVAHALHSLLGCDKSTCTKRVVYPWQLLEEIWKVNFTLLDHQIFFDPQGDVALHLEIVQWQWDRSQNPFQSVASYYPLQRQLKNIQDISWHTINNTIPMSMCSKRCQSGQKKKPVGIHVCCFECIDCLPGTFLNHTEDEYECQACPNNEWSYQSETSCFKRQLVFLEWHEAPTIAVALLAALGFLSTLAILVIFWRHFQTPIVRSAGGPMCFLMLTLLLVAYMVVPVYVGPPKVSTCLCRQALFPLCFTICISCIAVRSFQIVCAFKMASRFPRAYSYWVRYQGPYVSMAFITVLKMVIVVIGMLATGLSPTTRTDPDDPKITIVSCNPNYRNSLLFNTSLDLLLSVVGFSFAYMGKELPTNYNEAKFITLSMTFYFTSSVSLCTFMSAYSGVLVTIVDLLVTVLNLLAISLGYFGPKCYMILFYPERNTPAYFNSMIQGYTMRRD
T1 sequence (Q7RTX0 21-852): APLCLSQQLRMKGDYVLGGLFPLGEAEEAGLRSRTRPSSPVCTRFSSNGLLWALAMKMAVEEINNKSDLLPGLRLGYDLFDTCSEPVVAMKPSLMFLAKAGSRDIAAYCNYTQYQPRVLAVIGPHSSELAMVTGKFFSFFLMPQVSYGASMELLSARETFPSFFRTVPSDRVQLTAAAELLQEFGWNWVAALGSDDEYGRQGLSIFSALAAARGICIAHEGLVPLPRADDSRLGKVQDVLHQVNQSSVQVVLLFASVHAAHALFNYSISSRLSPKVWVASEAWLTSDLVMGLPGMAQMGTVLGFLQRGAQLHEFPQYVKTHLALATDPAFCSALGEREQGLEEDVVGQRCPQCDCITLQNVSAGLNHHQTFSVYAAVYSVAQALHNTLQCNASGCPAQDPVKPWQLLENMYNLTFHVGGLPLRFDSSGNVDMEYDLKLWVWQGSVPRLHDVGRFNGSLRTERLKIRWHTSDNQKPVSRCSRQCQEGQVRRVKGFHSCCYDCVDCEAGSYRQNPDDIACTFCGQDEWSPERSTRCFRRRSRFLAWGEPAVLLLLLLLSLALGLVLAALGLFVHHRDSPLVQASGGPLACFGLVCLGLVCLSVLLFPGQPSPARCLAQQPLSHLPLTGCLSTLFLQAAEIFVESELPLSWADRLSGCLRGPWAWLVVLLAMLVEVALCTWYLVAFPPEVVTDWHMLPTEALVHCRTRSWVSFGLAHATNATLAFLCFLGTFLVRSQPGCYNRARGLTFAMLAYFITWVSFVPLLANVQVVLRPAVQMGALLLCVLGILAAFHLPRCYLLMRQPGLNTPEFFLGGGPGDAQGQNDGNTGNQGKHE

Compound | Sweetness/potency
4β,11α-Dimethyl-1,2,3,4,5,10-hexahydro-fluorene-4α,6α-dicarboxylic acid | 1,300-1,800^d
COc1c(O)cc2c(c1O)C(=O)[C@H](OC(C)=O)[C@@H](c1ccc(O)c(O)c1)O2 [(2R,3R)-2,3-Dihydro-5,7,3′,4′-tetrahydroxy-6-methoxy-3-O-acetylflavonol] | 25
COc1c(O)cc2c(c1O)C(=O)[C@H](O)[C@@H](c1ccc(O)c(O)c1)O2 [(2R,3R)-2,3-Dihydro-5,7,3′,4′-tetrahydroxy-6-methoxyflavonol] | 15
COc1c(O)cc2c(c1O)C(=O)[C@H](OC(C)=O)[C@@H](c1ccc(O)cc1)O2 [(2R,3R)-2,3-Dihydro-5,7,4′-trihydroxy-6-methoxy-3-O-acetylflavonol] | 20
CC(=O)O[C@H]1C(=O)c2c(O)cc(O)cc2O[C@@H]1c1ccc(O)c(O)c1 [(2R,3R)-Dihydroquercetin 3-O-acetate] | 80
CC(C)=CCC[C@](C)(O)[C@@H]1CCC(C)=CC1=O [(+)-Hernandulcin] | 1,500
CC1=CC[C@@H]([C@@H](C)[C@H]2CC[C@@]3(C)[C@@H]4CC[C@H]5[C@](C)(C(=O)O)[C@@H](O[C@@H]6O[C@H](CO)[C@@H](O)[C@H](O)[C@H]6O)CC[C@@]56C[C@@]46CC[C@]23C)OC1=O [Abrusoside A] | 30
COC(=O)[C@H]1O[C@@H](O[C@H]2[C@H](O[C@H]3CC[C@]45C[C@]46CC[C@]4(C)[C@@H]([C@H](C)[C@@H]7CC=C(C)C(=O)O7)CC[C@@]4(C)[C@@H]6CC[C@H]5[C@]3(C)C(=O)O)O[C@H](CO)[C@@H](O)[C@@H]2O)[C@H](O)[C@@H](O)[C@@H]1O [Abrusoside B] | 100
CC1=CC[C@@H]([C@@H](C)[C@H]2CC[C@@]3(C)[C@@H]4CC[C@H]5[C@](C)(C(=O)O)[C@@H](O[C@@H]6O[C@H](CO)[C@@H](O)[C@H](O)[C@H]6O[C@@H]6O[C@H](CO)[C@@H](O)[C@H](O)[C@H]6O)CC[C@@]56C[C@@]46CC[C@]23C)OC1=O [Abrusoside C] | 50
CC1=CC[C@@H]([C@@H](C)[C@H]2CC[C@@]3(C)[C@@H]4CC[C@H]5[C@](C)(C(=O)O)[C@@H](O[C@@H]6O[C@H](CO)[C@@H](O)[C@H](O)[C@H]6O[C@@H]6O[C@H](C(=O)O)[C@@H](O)[C@H](O)[C@H]6O)CC[C@@]56C[C@@]46CC[C@]23C)OC1=O [Abrusoside D] | 75
CC1(C)C[C@H]2C3=CC[C@@H]4[C@@]5(C)CC[C@H](O[C@@H]6O[C@H](CO[C@@H]7OC[C@H](O)[C@H](O)[C@H]7O[C@@H]7OC[C@@H](O)[C@H](O)[C@H]7O)[C@@H](O)[C@H](O)[C@H]6O)C(C)(C)[C@@H]5CC[C@@]4(C)[C@]3(C)C[C@@H](O)[C@@]23C[C@@H]1OC3=O [Albiziasaponin A] | 5
CC1(C(=O)O)CCC2(C)CCC3(C)C(=CC(=O)C4C5(C)CCC(OC6OC(C(=O)O)C(O)C(O)C6OC6OCC(O)(CO)C6O)C(C)(C)C5CCC43C)C2C1 (stereo not drawn) [Apioglycyrrhizin] | 300
CC1(C)[C@@H](O[C@H]2O[C@H](C(=O)O)[C@@H](O)[C@H](O)[C@H]2O[C@@H]2OC[C@H](O)[C@H](O)[C@H]2O)CC[C@]2(C)[C@H]3C(=O)C=C4[C@@H]5C[C@@](C)(C(=O)O)CC[C@]5(C)CC[C@@]4(C)[C@]3(C)CC[C@@H]12 [Araboglycyrrhizin] | 150
C/C(=C\CC[C@@H](C)[C@H]1CC[C@@]2(C)[C@@H]3CC=C4[C@@H](CC[C@H](O[C@@H]5O[C@H](CO)[C@@H](O)[C@H](O)[C@H]5O)C4(C)C)[C@]3(C)[C@H](O)C[C@]12C)CO[C@@H]1O[C@H](CO[C@@H]2O[C@H](CO)[C@@H](O)[C@H](O)[C@H]2O)[C@@H](O)[C@H](O)[C@H]1O [Carnosifloside VI] | 77
COc1ccc(C2Oc3cc(O)cc(O)c3C(=O)C2OC(C)=O)cc1O (stereo not drawn) [Dihydroquercetin 3-O-acetate 4′-methyl ether] | 400
C=C1C[C@@]23CC[C@H]4[C@@](C)(CCC[C@@]4(C)C(=O)O[C@@H]4O[C@H](CO)[C@@H](O)[C@H](O)[C@H]4O)[C@@H]2CC[C@]1(O[C@@H]1O[C@H](CO)[C@@H](O)[C@H](O)[C@H]1O[C@@H]1O[C@@H](C)[C@H](O)[C@@H](O)[C@H]1O)C3 [Dulcoside A] | 30
C/C(=C\CO)CCC1=C(C=O)CC(OC2OCC(O)C(O)C2O)C2C(C)(CO)CCCC12C (stereo not drawn) [Gaudichaudioside A] | 55
CC1(C)[C@@H](O[C@H]2O[C@H](C(=O)O)[C@@H](O)[C@H](O)[C@H]2O[C@@H]2O[C@H](C(=O)O)[C@@H](O)[C@H](O)[C@H]2O)CC[C@]2(C)[C@H]3C(=O)C=C4[C@@H]5C[C@@](C)(C(=O)O)CC[C@]5(C)CC[C@@]4(C)[C@]3(C)CC[C@@H]12 [Glycyrrhizin] | 93-170^d
Oc1cc2c(cc1O)[C@@H]1c3ccc(O)c(O)c3OC[C@]1(O)C2 [Hematoxylin] | 120
C[C@H](CC[C@@H](O[C@@H]1O[C@H](CO)[C@@H](O)[C@H](O)[C@H]1O[C@@H]1O[C@H](CO)[C@@H](O)[C@H](O)[C@H]1O)C(C)(C)O)[C@H]1CC[C@@]2(C)[C@H]3CC=C4[C@@H](CC[C@H](O[C@@H]5O[C@H](CO[C@@H]6O[C@H](CO)[C@@H](O)[C@H](O)[C@H]6O)[C@@H](O)[C@H](O)[C@H]5O)C4(C)C)[C@]3(C)[C@H](O)C[C@]12C [Mogroside IV] | 233-392^d
C[C@H](CC[C@@H](O[C@@H]1O[C@H](CO[C@@H]2O[C@H](CO)[C@@H](O)[C@H](O)[C@H]2O)[C@@H](O)[C@H](O)[C@H]1O[C@@H]1O[C@H](CO)[C@@H](O)[C@H](O)[C@H]1O)C(C)(C)O)[C@H]1CC[C@@]2(C)[C@@H]3CC=C4[C@@H](CC[C@H](O[C@@H]5O[C@H](CO[C@@H]6O[C@H](CO)[C@@H](O)[C@H](O)[C@H]6O)[C@@H](O)[C@H](O)[C@H]5O)C4(C)C)[C@]3(C)[C@H](O)C[C@]12C [Mogroside V] | 250-425^d
N[C@@H](C[C@@](O)(Cc1c[nH]c2ccccc12)C(=O)O)C(=O)O [Monatin] | 1,200-1,400^d
C/C(=C\CC/C(C)=C/CO[C@@H]1O[C@H](CO)[C@@H](O)[C@H](O[C@@H]2O[C@@H](C)[C@H](O)[C@@H](O)[C@H]2O)[C@H]1O[C@@H]1O[C@@H](C)[C@H](O)[C@@H](O)[C@H]1O)CC/C=C(\C)CO[C@@H]1O[C@H](CO)[C@@H](O)[C@H](O[C@@H]2O[C@@H](C)[C@H](O)[C@@H](O)[C@H]2O)[C@H]1O[C@@H]1O[C@@H](C)[C@H](O)[C@@H](O)[C@H]1O [Mukurozioside IIb] | ca. 1
C[C@@H]1O[C@@H](O[C@H]2[C@H](Oc3cc(O)c(C(=O)CCc4ccc(O)cc4)c(O)c3)O[C@H](CO)[C@@H](O)[C@@H]2O)[C@H](O)[C@H](O)[C@H]1O [Naringin dihydrochalcone] | 300
COc1ccc(CCC(=O)c2c(O)cc(O[C@@H]3O[C@H](CO)[C@@H](O)[C@H](O)[C@H]3O[C@@H]3O[C@@H](C)[C@H](O)[C@@H](O)[C@H]3O)cc2O)cc1O [Neohesperidin dihydrochalcone] | 1,000
C[C@@H]1O[C@@H](O[C@H]2O[C@@H]([C@@H](C)C3CC[C@@H]4[C@H]5CC(=O)[C@@H]6C[C@H](O[C@@H]7O[C@H](CO)[C@@H](O)[C@H](O)[C@H]7O[C@@H]7O[C@@H](C)[C@H](O)[C@@H](O)[C@H]7O)CC[C@]6(C)[C@@H]5CC[C@]34C)CC[C@@H]2C)[C@H](O)[C@H](O)[C@H]1O (stereo partly drawn) [Osladin] | 500
CC1(C(=O)O)C=C2C3CCC4C5(CO)CCC(OC6OC(C(=O)O)C(O)C(O)C6OC6OC(C(=O)O)C(O)C(O)C6O)C(C)(C)C5CCC4(C)C3(C)CCC2(C)CC1 (stereo not drawn) [Periandrin III] | 92
